# Data published in US11807625B2, “Capsid inhibitors for the prevention of HIV” (Gilead Sciences, Inc., priority 2019, dated 2023).
# Values joined by “and” are separate entries in the source; they are usually repeats but may differ in a detail not shown here. Equal values may be shown once.
# Assay: PK of compound of Formula (Ia) after single subcutaneous dose of solution formulations in Wistar Han rats
# Assay type: in vivo
# Details: SC 50 mg/kg; for concentration at 1 h / concentration at 3 h / concentration at 8 h: male, Wistar Han, rat, plasma, sc
# Procedure: Formulations containing the compound of Formula (Ia), or a pharmaceutically acceptable salt thereof, were prepared as solutions and optionally administered subcutaneously or intramuscularly to rats, rabbits, and/or dogs.
# (§1) A solution of about 400 mg/mL of the compound of Formula (Ia) having 19.14 w/w % water, 40.66 w/w % PEG 300, 35.20 w/w % of a sodium salt of a compound of Formula (Ia), and 5.00% ethanol was prepared. The solution was administered subcutaneously to male Wistar Han rats at a dose level of about 50 mg/kg and dose volume of 0.125 mL/kg and the pharmacokinetic (PK) profile was determined.
# as §1, with “500” for “400”, “16.64” for “19.14”, “35.36” for “40.66”, “43.00” for “35.20”, “0.1” for “0.125”
# (§2) A solution of about 400 mg/mL of the compound of Formula (Ia) having 17.00 w/w % water, 36.40 w/w % PEG 300, 35.20 w/w % of a sodium salt of a compound of Formula (Ia), 5.00 w/w % ethanol, and 6.40 w/w % poloxamer 188 was prepared. The solution was administered subcutaneously to male beagle dogs at a dose level of about 12 mg/kg and male Wistar Han rats at a dose level of about 50 mg/kg. The pharmacokinetic profiles were determined, and the results for dogs are summarized in Table and Table, while the results for rats are summarized in Table and Table below.
# as §2, with “500” for “400”, “14.06” for “17.00”, “30.12” for “36.40”
# A solution of about 300 mg/mL of the compound of Formula (Ia) having 23.33 w/w % water, 48.99 w/w % PEG 300, 26.47 w/w % of a sodium salt of a compound of Formula (Ia), and 1.21 w/w % poloxamer 188 was prepared. The solution was administered subcutaneously to male beagle dogs at a dose level of about 6 mg/kg and male Wistar Han rats at a dose level of about 50 mg/kg. The pharmacokinetic profiles were determined, and the results for dogs are summarized in Table and Table, while the results for rats are summarized in Table and Table below.
# as §2, with “18.80” for “17.00”, “40.25” for “36.40”, “34.38” for “35.20”, “1.57” for “6.40”
# as §2, with “500” for “400”, “16.29” for “17.00”, “34.88” for “36.40”, “41.92” for “35.20”, “1.91” for “6.40”
# A solution of about 400 mg/mL of the compound of Formula (Ia) having 20.90 w/w % water, 44.72 w/w % PEG 300, and 34.38 w/w % of a sodium salt of a compound of Formula (Ia) was prepared. […]
smiles,measurement,setting,value
CC(C)(C#Cc1ccc(-c2ccc(Cl)c3c(NS(C)(=O)=O)nn(CC(F)(F)F)c23)c([C@H](Cc2cc(F)cc(F)c2)NC(=O)Cn2nc(C(F)(F)F)c3c2C(F)(F)[C@@H]2C[C@H]32)n1)S(C)(=O)=O [compound of Formula (Ia)],Plasma concentration,"0 h, individual rats, solution R, 400 mg/mL",BLQ
same,Plasma concentration,"0 h, individual rats, solution S, 500 mg/mL",BLQ
same,Plasma concentration,"0 h, individual rats, solution T, 400 mg/mL",BLQ
same,Plasma concentration,"0 h, individual rats, solution U, 500 mg/mL",BLQ
same,Plasma concentration,"0 h, individual rats, solution V, 300 mg/mL",BLQ
same,Plasma concentration,"1.00 h, individual rats, solution R, 400 mg/mL, 50 mg/kg",59.3 nM and 42.4 nM
same,Plasma concentration,"3.00 h, individual rats, solution R, 400 mg/mL, 50 mg/kg",164 nM and 104 nM
same,Plasma concentration,"3.00 h, individual rats, solution S, 500 mg/mL, 50 mg/kg",72.7 nM and 118 nM
same,Plasma concentration,"8.00 h, individual rats, solution R, 400 mg/mL, 50 mg/kg",131 nM and 84.1 nM
same,Plasma concentration,"8.00 h, individual rats, solution S, 500 mg/mL, 50 mg/kg",82.0 nM and 127 nM
same,Plasma concentration,"24.0 h, individual rats, solution R, 400 mg/mL, 50 mg/kg",194 nM and 125 nM
same,Plasma concentration,"24.0 h, individual rats, solution S, 500 mg/mL, 50 mg/kg",138 nM and 133 nM
same,Plasma concentration,"48.0 h, individual rats, solution R, 400 mg/mL, 50 mg/kg",162 nM and 107 nM
same,Plasma concentration,"48.0 h, individual rats, solution S, 500 mg/mL, 50 mg/kg",158 nM and 119 nM
same,Plasma concentration,"72.0 h, individual rats, solution R, 400 mg/mL, 50 mg/kg",154 nM and 123 nM
same,Plasma concentration,"72.0 h, individual rats, solution S, 500 mg/mL, 50 mg/kg",166 nM and 120 nM
same,Plasma concentration,"96.0 h, individual rats, solution R, 400 mg/mL, 50 mg/kg",162 nM and 112 nM
same,Plasma concentration,"96.0 h, individual rats, solution S, 500 mg/mL, 50 mg/kg",149 nM and 107 nM
same,Plasma concentration,"168 h, individual rats, solution R, 400 mg/mL, 50 mg/kg",166 nM and 124 nM
same,Plasma concentration,"168 h, individual rats, solution S, 500 mg/mL, 50 mg/kg",121 nM and 82.3 nM
same,Plasma concentration,"336 h, individual rats, solution R, 400 mg/mL, 50 mg/kg",275 nM and 256 nM
same,Plasma concentration,"336 h, individual rats, solution S, 500 mg/mL, 50 mg/kg",277 nM and 140 nM and 131 nM
same,Plasma concentration,"504 h, individual rats, solution R, 400 mg/mL, 50 mg/kg",319 nM and 393 nM
same,Plasma concentration,"504 h, individual rats, solution S, 500 mg/mL, 50 mg/kg",211 nM and 235 nM
same,Plasma concentration,"672 h, individual rats, solution R, 400 mg/mL, 50 mg/kg",286 nM and 442 nM
same,Plasma concentration,"672 h, individual rats, solution S, 500 mg/mL, 50 mg/kg",254 nM and 227 nM
same,Plasma concentration,"840 h, individual rats, solution R, 400 mg/mL, 50 mg/kg",313 nM and 443 nM
same,Plasma concentration,"840 h, individual rats, solution S, 500 mg/mL, 50 mg/kg",221 nM and 250 nM
same,Plasma concentration,"1008 h, individual rats, solution R, 400 mg/mL, 50 mg/kg",318 nM and 442 nM
same,Plasma concentration,"1008 h, individual rats, solution S, 500 mg/mL, 50 mg/kg",479 nM and 207 nM and 215 nM
same,Plasma concentration,"1334 h, individual rats, solution R, 400 mg/mL, 50 mg/kg",266 nM and 421 nM
same,Plasma concentration,"1334 h, individual rats, solution S, 500 mg/mL, 50 mg/kg",254 nM and 248 nM
same,Plasma concentration,"1680 h, individual rats, solution R, 400 mg/mL, 50 mg/kg",233 nM and 328 nM
same,Plasma concentration,"1680 h, individual rats, solution S, 500 mg/mL, 50 mg/kg",216 nM and 189 nM
same,Plasma concentration,"2016 h, individual rats, solution R, 400 mg/mL, 50 mg/kg",181 nM and 227 nM
same,Plasma concentration,"2016 h, individual rats, solution S, 500 mg/mL, 50 mg/kg",158 nM and 133 nM
same,Plasma concentration,"2352 h, individual rats, solution R, 400 mg/mL, 50 mg/kg",182 nM
same,Plasma concentration,"2352 h, individual rats, solution S, 500 mg/mL, 50 mg/kg",170 nM and 119 nM
same,Plasma concentration,"2688 h, individual rats, solution R, 400 mg/mL, 50 mg/kg",146 nM and 147 nM
same,Plasma concentration,"2688 h, individual rats, solution S, 500 mg/mL, 50 mg/kg",148 nM and 126 nM
same,Plasma concentration,"3024 h, individual rats, solution R, 400 mg/mL, 50 mg/kg",118 nM and 111 nM
same,Plasma concentration,"3360 h, individual rats, solution R, 400 mg/mL, 50 mg/kg",116 nM and 84.7 nM
same,Plasma concentration,"3696 h, individual rats, solution R, 400 mg/mL, 50 mg/kg",117 nM and 109 nM and 58.4 nM
same,Plasma concentration,"4032 h, individual rats, solution R, 400 mg/mL, 50 mg/kg",109 nM and 136 nM and 59.5 nM
same,Plasma concentration,"4704 h, individual rats, solution R, 400 mg/mL, 50 mg/kg",84.4 nM and 92.7 nM and 29.9 nM
same,Plasma concentration,"5376 h, individual rats, solution R, 400 mg/mL, 50 mg/kg",62.6 nM and 90.4 nM and 20.9 nM
same,Plasma concentration,"6048 h, individual rats, solution R, 400 mg/mL, 50 mg/kg",27.4 nM and 48.6 nM and 14.6 nM
same,Plasma concentration,"6720 h, individual rats, solution R, 400 mg/mL, 50 mg/kg",22.7 nM and 45.8 nM and 10.4 nM
same,Plasma concentration,"7392 h, individual rats, solution R, 400 mg/mL, 50 mg/kg",13.5 nM and 28.6 nM and 7.43 nM
same,Plasma concentration,"8064 h, individual rats, solution R, 400 mg/mL, 50 mg/kg",8.39 nM and 24.1 nM and 4.52 nM
same,concentration at 1 h,"50 mg/kg, 1.00 h, individual rats, solution R, 400 mg/mL",67.6 nM
same,concentration at 1 h,"50 mg/kg, 1.00 h, individual rats, solution U, 500 mg/mL",42.6 nM
same,concentration at 1 h,"50 mg/kg, 1.00 h, individual rats, solution V, 300 mg/mL",51.4 nM
same,concentration at 1 h,"50 mg/kg, 1.00 h, mean, n = 3 rats, solution R, 400 mg/mL",56.4 nM
same,concentration at 1 h,"50 mg/kg, 1.00 h, mean, n = 3 rats, solution S, 500 mg/mL",49.2 nM
same,concentration at 1 h,"50 mg/kg, 1.00 h, mean, n = 3 rats, solution V, 300 mg/mL",51.4 nM
same,concentration at 1 h,"50 mg/kg, 1.00 h, mean, n = 5 rats, solution T, 400 mg/mL",56.4 nM
same,concentration at 1 h,"50 mg/kg, 1.00 h, mean, n = 5 rats, solution U, 500 mg/mL",50.5 nM
same,concentration at 3 h,"50 mg/kg, 3.00 h, individual rats, solution R, 400 mg/mL",128 nM
same,concentration at 3 h,"50 mg/kg, 3.00 h, individual rats, solution S, 500 mg/mL",87.6 nM
same,concentration at 3 h,"50 mg/kg, 3.00 h, individual rats, solution T, 400 mg/mL",128 nM
same,concentration at 3 h,"50 mg/kg, 3.00 h, individual rats, solution V, 300 mg/mL",141 nM
same,concentration at 3 h,"50 mg/kg, 3.00 h, mean, n = 3 rats, solution R, 400 mg/mL",132 nM
same,concentration at 3 h,"50 mg/kg, 3.00 h, mean, n = 3 rats, solution S, 500 mg/mL",92.8 nM
same,concentration at 3 h,"50 mg/kg, 3.00 h, mean, n = 3 rats, solution V, 300 mg/mL",116 nM
same,concentration at 3 h,"50 mg/kg, 3.00 h, mean, n = 5 rats, solution T, 400 mg/mL",135 nM
same,concentration at 3 h,"50 mg/kg, 3.00 h, mean, n = 5 rats, solution U, 500 mg/mL",110 nM
same,concentration at 8 h,"50 mg/kg, 8.00 h, individual rats, solution R, 400 mg/mL",120 nM
same,concentration at 8 h,"50 mg/kg, 8.00 h, individual rats, solution S, 500 mg/mL",92 nM
